Consider 7 compounds from patent EP0167945A2, “Phenylethylaminopropiophenone derivatives, process for their preparation et medicines containing them” (Troponwerke GmbH & Co. KG, priority 1984, dated 1986).

Where a name gives a salt, the structure may show the parent alone.

For experiment [1], the system named is durch Tetrabenazin induzierte Ptosis. As to the kind of experiment: Tetrabenazine antagonism (antagonism of tetrabenazine-induced ptosis). In kind it is in vivo, Mäusen. To be noted: Mus musculus, ip; dose at which ptosis induced by 20 mg/kg i.p. Tetrabenazin is reduced by 50 %; mice; read-out: DE50 (the source's name). The source says: (§1) Die Verbindungen wurden auf anxiolytische, nootrope und antidepressive Eigenschaften geprüft. Als Leittest für die anxiolytische Wirkung diente die Antagonisierung der Fußschock-induzierten Aggressivität nach Tedeschi^1; für die antidepressive Wirkung der Antitetrabenazin^2- und Amphetaminpotenzierungstest . Beispielsweise wurden für die antidepressiven Wirkungen der erfindungsgemäßen Substanzen folgende Werte erhalten:
1) Tetrabenazin Antagonismus
Antidepressiv wirksame Substanzen antagonisieren die durch Tetrabenazin induzierte Ptosis bei Mäusen. Der DE50-Wert gibt diejenige Dosis an, bei der die durch 20 mg/kg i.p. Tetrabenazin induzierte Ptosis zu 50 % reduziert ist. Dazu seien Beispiele genannt:
• 1 Tedeschi et al., J. Pharmacol. Exp. Ther. 129, 28-34, 1959 • 2 J. L. Howard et al., in: Antidepressants: Neurochemical,.Behavioral and Clinical Perspectives, herausgegeben von S. J. Enna et al., Raven Press N. Y., S. 107-120, 1981.

Experiment [2] relates to Amphetamininduzierte stereotype Verhalten. As to the kind of experiment: Amphetamine potentiation (potentiation of amphetamine-induced stereotyped behaviour). Format: in vivo, Ratte. To be noted: ip; dose at which behaviour induced by 2 mg/kg DL-Amphetaminsulfat i. v. is enhanced by 50 %; rat; read-out: DE50 (the source's name).
From the text: as §1
2) Amphetamin-Potenzierung
Antidepressiv wirksame Substanzen potenzieren das Amphetamininduzierte stereotype Verhalten bei der Ratte.
Der angegebene DE50-Wert ist die Dosis, bei der das Amphetamininduzierte Verhalten nach Gabe von 2 mg/kg DL-Amphetaminsulfat i. v. um 50 % verstärkt ist.

For the compound `CC(NC(C)(C)Cc1ccccc1)C(=O)c1cccc(Cl)c1` (stereo not shown) [Beispiel 1, 1-(3-Chlorphenyl)-2-(1,1-dimethyl-2-phenylethylamino)propan-1-onhydrochlorid], the ED50 in experiment [1] was determined as 1 mg/kg; in experiment [2], 13 mg/kg.
The like results for `CC(Cc1ccccc1)NC(C)C(=O)c1cccc(Cl)c1` (stereo not shown) [Beispiel 2, 1-(3-Chlorphenyl)-2-(1-methyl-2-phenyl-ethylamino) propan-1-onhydrochlorid] were, in that order, 14 mg/kg and 6 mg/kg.
The corresponding values for `CC(NC(C)(C)Cc1ccc(Cl)cc1)C(=O)c1cccc(Cl)c1` (stereo not shown) [Beispiel 3, 1-(3-Chlorphenyl)-2-(1,1-dimethyl-2-(4-chlor-phenyl)ethylamino)propan-1-onhydrochlorid] are 12 mg/kg and 9 mg/kg.
`CC(NC(C)(C)Cc1ccccc1)C(=O)c1ccccc1` (stereo not shown) [Beispiel 4, 1-Phenyl-2-(1,1-dimethyl-2-phenylethylamino)-propan-1-onhydrochlorid]: the ED50 in experiment [1] was 19 mg/kg.
On the same count and under the same terms, in the case of `COc1ccc(CC(C)(C)NC(C)C(=O)c2cccc(Cl)c2)cc1` (stereo not shown) [Beispiel 5, 1-(3-Chlorphenyl)-2-(1,1-dimethyl-2-(4-methoxyphenyl)ethylamino)propan-1-onhydrochlorid] it was 6.5 mg/kg.
The same measure, in the same setting: in the case of `CC(NC(C)(C)Cc1ccccc1)C(=O)c1cccc(F)c1` (stereo not shown) [Beispiel 6, 1-(3-Fluorphenyl)-2-(1,1-dimethyl-2-phenylethylamino)propan-1-onhydrochlorid] it was 6 mg/kg; in that of `CC(NC(C)(C)Cc1ccccc1)C(=O)c1cccc(C(F)(F)F)c1` (stereo not shown) [Beispiel 7, 1-(3-Trifluormethylphenyl)-2-(1,1-dimethyl-2-phenylethylamino)propan-1-onhydrochlorid], 10 mg/kg.
